Test results taken from patent US12655125B2 (SIRONAX LTD., priority 2020, dated 2026).

The molecules below were run on HT-29 cells (assay: HT29 Cells 0FBS Assay In Vitro (TNF-α/SMAC mimetic/zVAD-FMK induced necroptosis, CellTiter-Glo cell viability)). Conditions: Homo sapiens; HT-29 cells, FBS free medium, TNF-α (10 ng/ml), SMAC mimetic (6 uM), zVAD-FMK (10 μM), 20 hours; geometric mean EC50; read-out: Cell activity (EC50) of Compounds 1-116.
Format: cell-based
Summary of the method: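 HT-29 cells (5,000/well, seeded overnight) in serum-free McCoy's 5A were stimulated with TNF-α 10 ng/ml, SMAC mimetic 6 μM and zVAD-FMK 10 μM to induce necroptosis. Compound added as 10-point 3-fold series for 20 h at 37° C. CellTiter-Glo luminescence gives viability; EC50 is geometric mean of duplicate dose-responses.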
Work on `COc1cnn(C)c1-c1cc(OC2CN(C(=O)N3N=CC[C@H]3c3cc(F)cc(F)c3)C2)c(F)cn1` [compound 50, (S)-(5-(3,5-difluorophenyl)-4,5-dihydro-1H-pyrazol-1-yl)(3-((5-fluoro-2-(4-methoxy-1-methyl-1H-pyrazol-5-yl)pyridin-4-yl)oxy)azetidin-1-yl)methanone] yielded an EC50 of 0.1 to 100 nM.
For `CN(C)CCOc1cnn(C)c1-c1cc(OC2CN(C(=O)N3N=CC[C@H]3c3cc(F)cc(F)c3)C2)c(F)cn1` [compound 51, (S)-(5-(3,5-difluorophenyl)-4,5-dihydro-1H-pyrazol-1-yl)(3-((2-(4-(2-(dimethylamino)ethoxy)-1-methyl-1H-pyrazol-5-yl)-5-fluoropyridin-4-yl)oxy)azetidin-1-yl)methanone], the EC50 was 100 to 1000 nM.
With `COCCOc1cnn(C)c1-c1cc(OC2CN(C(=O)N3N=CC[C@H]3c3cc(F)cc(F)c3)C2)c(F)cn1` [compound 52, (S)-(5-(3,5-difluorophenyl)-4,5-dihydro-1H-pyrazol-1-yl)(3-((5-fluoro-2-(4-(2-methoxyethoxy)-1-methyl-1H-pyrazol-5-yl)pyridin-4-yl)oxy)azetidin-1-yl)methanone] the EC50 was 0.1 to 100 nM.
`Cn1ncc(N)c1-c1cc(OC2CN(C(=O)N3N=CC[C@H]3c3cc(F)cc(F)c3)C2)c(F)cn1` [compound 53, (S)-(3-((2-(4-amino-1-methyl-1H-pyrazol-5-yl)-5-fluoropyridin-4-yl)oxy)azetidin-1-yl)(5-(3,5-difluorophenyl)-4,5-dihydro-1H-pyrazol-1-yl)methanone] showed an EC50 of 0.1 to 100 nM.
`CNc1cnn(C)c1-c1cc(OC2CN(C(=O)N3N=CC[C@H]3c3cc(F)cc(F)c3)C2)c(F)cn1` [compound 54, (S)-(5-(3,5-difluorophenyl)-4,5-dihydro-1H-pyrazol-1-yl)(3-((5-fluoro-2-(1-methyl-4-(methylamino)-1H-pyrazol-5-yl)pyridin-4-yl)oxy)azetidin-1-yl)methanone] showed an EC50 of 0.1 to 100 nM.
Work on `CN(C)c1cnn(C)c1-c1cc(OC2CN(C(=O)N3N=CC[C@H]3c3cc(F)cc(F)c3)C2)c(F)cn1` [compound 55, (S)-(5-(3,5-difluorophenyl)-4,5-dihydro-1H-pyrazol-1-yl)(3-((2-(4-(dimethylamino)-1-methyl-1H-pyrazol-5-yl)-5-fluoropyridin-4-yl)oxy)azetidin-1-yl)methanone] yielded an EC50 of 0.1 to 100 nM.
Molecule `COCCNc1cnn(C)c1-c1cc(OC2CN(C(=O)N3N=CC[C@H]3c3cc(F)cc(F)c3)C2)c(F)cn1` [compound 56, (S)-(5-(3,5-difluorophenyl)-4,5-dihydro-1H-pyrazol-1-yl)(3-((5-fluoro-2-(4-((2-methoxyethyl)amino)-1-methyl-1H-pyrazol-5-yl)pyridin-4-yl)oxy)azetidin-1-yl)methanone] has an EC50 of 0.1 to 100 nM.
Molecule `CC(=O)Nc1cnn(C)c1-c1cc(OC2CN(C(=O)N3N=CC[C@H]3c3cc(F)cc(F)c3)C2)c(F)cn1` [compound 57, (S)—N-(5-(4-((1-(5-(3,5-difluorophenyl)-4,5-dihydro-1H-pyrazole-1-carbonyl)azetidin-3-yl)oxy)-5-fluoropyridin-2-yl)-1-methyl-1H-pyrazol-4-yl)acetamide] has an EC50 of 0.1 to 100 nM.
Work on `CCC(=O)Nc1cnn(C)c1-c1cc(OC2CN(C(=O)N3N=CC[C@H]3c3cc(F)cc(F)c3)C2)c(F)cn1` [compound 58, (S)—N-(5-(4-((1-(5-(3,5-difluorophenyl)-4,5-dihydro-1H-pyrazole-1-carbonyl)azetidin-3-yl)oxy)-5-fluoropyridin-2-yl)-1-methyl-1H-pyrazol-4-yl)propionamide] yielded an EC50 of 0.1 to 100 nM.
In the case of `CC(C)C(=O)Nc1cnn(C)c1-c1cc(OC2CN(C(=O)N3N=CC[C@H]3c3cc(F)cc(F)c3)C2)c(F)cn1` [compound 59, (S)—N-(5-(4-((1-(5-(3,5-difluorophenyl)-4,5-dihydro-1H-pyrazole-1-carbonyl)azetidin-3-yl)oxy)-5-fluoropyridin-2-yl)-1-methyl-1H-pyrazol-4-yl)isobutyramide], the EC50 is reported as 0.1 to 100 nM.
With `CC(C)CC(=O)Nc1cnn(C)c1-c1cc(OC2CN(C(=O)N3N=CC[C@H]3c3cc(F)cc(F)c3)C2)c(F)cn1` [compound 60, (S)—N-(5-(4-((1-(5-(3,5-difluorophenyl)-4,5-dihydro-1H-pyrazole-1-carbonyl)azetidin-3-yl)oxy)-5-fluoropyridin-2-yl)-1-methyl-1H-pyrazol-4-yl)-3-methylbutanamide] the EC50 was 0.1 to 100 nM.
Molecule `CNC(=O)CNc1cnn(C)c1-c1cc(OC2CN(C(=O)N3N=CC[C@H]3c3cc(F)cc(F)c3)C2)c(F)cn1` [compound 61, (S)-2-((5-(4-((1-(5-(3,5-difluorophenyl)-4,5-dihydro-1H-pyrazole-1-carbonyl)azetidin-3-yl)oxy)-5-fluoropyridin-2-yl)-1-methyl-1H-pyrazol-4-yl)amino)-N-methylacetamide] has an EC50 of 0.1 to 100 nM.
`Cn1ncc(NCC(=O)N2CCOCC2)c1-c1cc(OC2CN(C(=O)N3N=CC[C@H]3c3cc(F)cc(F)c3)C2)c(F)cn1` [compound 62, (S)-2-((5-(4-((1-(5-(3,5-difluorophenyl)-4,5-dihydro-1H-pyrazole-1-carbonyl)azetidin-3-yl)oxy)-5-fluoropyridin-2-yl)-1-methyl-1H-pyrazol-4-yl)amino)-1-morpholinoethan-1-one] gave an EC50 of 0.1 to 100 nM.
With `CN(C)C(=O)CNc1cnn(C)c1-c1cc(OC2CN(C(=O)N3N=CC[C@H]3c3cc(F)cc(F)c3)C2)c(F)cn1` [compound 63, (S)-2-((5-(4-((1-(5-(3,5-difluorophenyl)-4,5-dihydro-1H-pyrazole-1-carbonyl)azetidin-3-yl)oxy)-5-fluoropyridin-2-yl)-1-methyl-1H-pyrazol-4-yl)amino)-N,N-dimethylacetamide] the EC50 was 0.1 to 100 nM.
Molecule `COC(=O)c1cnn(C)c1-c1cc(OC2CN(C(=O)N3N=CC[C@H]3c3cc(F)cc(F)c3)C2)c(F)cn1` [compound 64, methyl (S)-5-(4-((1-(5-(3,5-difluorophenyl)-4,5-dihydro-1H-pyrazole-1-carbonyl)azetidin-3-yl)oxy)-5-fluoropyridin-2-yl)-1-methyl-1H-pyrazole-4-carboxylate] has an EC50 of 0.1 to 100 nM.
With `Cn1ncc(C(=O)O)c1-c1cc(OC2CN(C(=O)N3N=CC[C@H]3c3cc(F)cc(F)c3)C2)c(F)cn1` [compound 65, (S)-5-(4-((1-(5-(3,5-difluorophenyl)-4,5-dihydro-1H-pyrazole-1-carbonyl)azetidin-3-yl)oxy)-5-fluoropyridin-2-yl)-1-methyl-1H-pyrazole-4-carboxylic acid] the EC50 was 1000 to 10000 nM.
Molecule `Cn1ncc(C(N)=O)c1-c1cc(OC2CN(C(=O)N3N=CC[C@H]3c3cc(F)cc(F)c3)C2)c(F)cn1` [compound 66, (S)-5-(4-((1-(5-(3,5-difluorophenyl)-4,5-dihydro-1H-pyrazole-1-carbonyl)azetidin-3-yl)oxy)-5-fluoropyridin-2-yl)-1-methyl-1H-pyrazole-4-carboxamide] has an EC50 of 0.1 to 100 nM.
`CNC(=O)c1cnn(C)c1-c1cc(OC2CN(C(=O)N3N=CC[C@H]3c3cc(F)cc(F)c3)C2)c(F)cn1` [compound 67, (S)-5-(4-((1-(5-(3,5-difluorophenyl)-4,5-dihydro-1H-pyrazole-1-carbonyl)azetidin-3-yl)oxy)-5-fluoropyridin-2-yl)-N,1-dimethyl-1H-pyrazole-4-carboxamide] showed an EC50 of 0.1 to 100 nM.
Work on `CN(C)C(=O)c1cnn(C)c1-c1cc(OC2CN(C(=O)N3N=CC[C@H]3c3cc(F)cc(F)c3)C2)c(F)cn1` [compound 68, (S)-5-(4-((1-(5-(3,5-difluorophenyl)-4,5-dihydro-1H-pyrazole-1-carbonyl)azetidin-3-yl)oxy)-5-fluoropyridin-2-yl)-N,N,1-trimethyl-1H-pyrazole-4-carboxamide] yielded an EC50 of 1000 to 10000 nM.
`CN(C)CCNC(=O)c1cnn(C)c1-c1cc(OC2CN(C(=O)N3N=CC[C@H]3c3cc(F)cc(F)c3)C2)c(F)cn1` [compound 69, (S)-5-(4-((1-(5-(3,5-difluorophenyl)-4,5-dihydro-1H-pyrazole-1-carbonyl)azetidin-3-yl)oxy)-5-fluoropyridin-2-yl)-N-(2-(dimethylamino)ethyl)-1-methyl-1H-pyrazole-4-carboxamide] was tested, and the EC50 was 100 to 1000 nM.
Work on `CC(C)CNC(=O)c1cnn(C)c1-c1cc(OC2CN(C(=O)N3N=CC[C@H]3c3cc(F)cc(F)c3)C2)c(F)cn1` [compound 70, (S)-5-(4-((1-(5-(3,5-difluorophenyl)-4,5-dihydro-1H-pyrazole-1-carbonyl)azetidin-3-yl)oxy)-5-fluoropyridin-2-yl)-N-isobutyl-1-methyl-1H-pyrazole-4-carboxamide] yielded an EC50 of 0.1 to 100 nM.
Molecule `CCNC(=O)c1cnn(C)c1-c1cc(OC2CN(C(=O)N3N=CC[C@H]3c3cc(F)cc(F)c3)C2)c(F)cn1` [compound 71, (S)-5-(4-((1-(5-(3,5-difluorophenyl)-4,5-dihydro-1H-pyrazole-1-carbonyl)azetidin-3-yl)oxy)-5-fluoropyridin-2-yl)-N-ethyl-1-methyl-1H-pyrazole-4-carboxamide] has an EC50 of 0.1 to 100 nM.
`Cn1ncc(C(=O)N2CCC2)c1-c1cc(OC2CN(C(=O)N3N=CC[C@H]3c3cc(F)cc(F)c3)C2)c(F)cn1` [compound 72, (S)-azetidin-1-yl(5-(4-((1-(5-(3,5-difluorophenyl)-4,5-dihydro-1H-pyrazole-1-carbonyl)azetidin-3-yl)oxy)-5-fluoropyridin-2-yl)-1-methyl-1H-pyrazol-4-yl)methanone] gave an EC50 of 100 to 1000 nM.
Molecule `Cn1ncc(C(=O)N2CC(O)C2)c1-c1cc(OC2CN(C(=O)N3N=CC[C@H]3c3cc(F)cc(F)c3)C2)c(F)cn1` [compound 73, (S)-(5-(3,5-difluorophenyl)-4,5-dihydro-1H-pyrazol-1-yl)(3-((5-fluoro-2-(4-(3-hydroxyazetidine-1-carbonyl)-1-methyl-1H-pyrazol-5-yl)pyridin-4-yl)oxy)azetidin-1-yl)methanone] has an EC50 of 100 to 1000 nM.
With `COC1CN(C(=O)c2cnn(C)c2-c2cc(OC3CN(C(=O)N4N=CC[C@H]4c4cc(F)cc(F)c4)C3)c(F)cn2)C1` [compound 74, (S)-(5-(3,5-difluorophenyl)-4,5-dihydro-1H-pyrazol-1-yl)(3-((5-fluoro-2-(4-(3-methoxyazetidine-1-carbonyl)-1-methyl-1H-pyrazol-5-yl)pyridin-4-yl)oxy)azetidin-1-yl)methanone] the EC50 was 100 to 1000 nM.
